Source: patent US7531567B2, “Use of a medicament containing an effector of the glutathione metabolism together with α-lipoic acid in kidney replacement therapy” (Serumwerk Bernburg AG, priority 2001, dated 2009)

Assays:
Type in all cases: cell-based, human
peritoneal macrophages [1] = experiment: stability of intracellular thiol restitution in peritoneal macrophages in the dialysis model
Procedure: (§1) The peritoneal macrophages described under example 3, which were thiol-restituted by means of the combinations used according to the invention, were removed from this test system after 6 days and cultured in a dialysis model over a period of 14 days. For this, the peritoneal macrophages were adapted to mobile collagen IV-coated matrices and brought into contact with conventional dialysis solution 3 times daily for 60 minutes each. This model served here for the induction of a combined […]/osmotic stress. In FIG. 6, the action of the combination of α-lipoic acid and ambroxole (FIG. 6a), and α-lipoic acid and enalapril (FIG. 6b) on the intracellular thiol expression of the peritoneal macrophages in the time kinetics is presented. The membrane expression of thiols was determined by means of the mean fluorescence intensity (mfi) of the sample (3000 cells/measurement) after coupling to a chloro-methylfluorochrome derivative.

peritoneal macrophages [2] = experiment: membrane-bound thiol expression of peritoneal macrophages; conditions: FIG. 5
Procedure: Peritoneal macrophages were isolated from the effluate of the peritoneal dialysis of high-grade renally insufficient patients, taken up in cell culture medium and incubated in a gas incubator at 37° C., a relative humidity of 98% and 7.5% relative air-CO2 content. In order to test the influence of the combinations used according to the invention on the thiol status of the peritoneal macrophages, in each case a fraction was treated with α-lipoic acid, the effector of the glutathione metabolism ambroxole or the ACE inhibitor enalapril or with the combination of α-lipoic acid/ambroxole or α-lipoic acid/enalapril, while in each case a further fraction was used as an untreated control. The determination of the cellular thiol status was carried out by means of the measuring method described under 1. The membrane expression of thiols was determined by means of the mean fluorescence intensity (mfi) of the sample (3000 cells/measurement) after coupling to a chloromethylfluorochrome derivative. In FIG. 5, the action of the combination of α-lipoic acid and enalapril (FIG. 5b) on the membrane-bound thiol expression of peritoneal macrophages in the experimental setup described above is presented. The membrane expression of thiols was determined by means of the mean fluorescence intensity (mfi) of the sample (3000 cells/measurement) after coupling to a chloro-methylfluorochrome derivative.

peritoneal macrophages [3] = experiment: degree of differentiation and activation of peritoneal macrophages (CD15, CD11c, CD69, CD71); conditions: incubation for 6 days, control = 1.0, α-lipoic acid 50 μM, ambroxole 10 μM, enalapril 5 μM, captopril 10 μM
Procedure: Peritoneal macrophages were isolated from patients under kidney replacement therapy according to the processes described under example 3 and cultured in the presence of the combinations of α-lipoic acid and effectors of the glutathione metabolism named according to the invention. After incubation for 6 days, the degree of differentiation of the peritoneal macrophages was determined cytofluorometrically by means of the expression of the cell surface antigens CD15 and CD11c, and the degree of cellular activation by means of the coexpression of the activation antigens CD69 on CD15-positive cells and CD71 on CD11c-positive cells.

peritoneal macrophages [4] = experiment: phagocytic ability of peritoneal macrophages (fluorochrome-labelled bacteria); conditions: treatment period of 6 days
Procedure: Peritoneal macrophages were isolated analogously to the procedure described under example 3 and cultured ex vivo. The determination of the phagocytic power was carried out by means of a cytofluorometric test at the individual cell level. In this test, the macrophages were cocultured with opsonized and fluorochrome-labelled bacteria. The amount of bacteria taken up in a defined time period was recorded quantitatively by means of the fluorescence intensity in the macrophages and was regarded as a measure of their phagocytic capacity. The influence of the combinations used according to the invention on the phagocytic ability of the peritoneal macrophages after a treatment period of 6 days is presented in Table 3.

peritoneal macrophages [5] = experiment: stability of membrane-bound thiol restitution in peritoneal macrophages in the dialysis model; conditions: dialysis model over 14 days; FIG. 7
Procedure: as §1

[6] = test system: lymphocytes (peripheral immune cells); experiment: intracellular thiol expression of peripheral immune cells (CMFDA flow cytofluorimetry); conditions: for intracellular thiol expression: α-lipoic acid 50 μM, captopril 10 μM, combination at the same concentrations
Procedure: Peripheral immune cells of healthy donors (n=9) were isolated from the peripheral blood by means of density gradient centrifugation. Lymphocytes having a donor-dependent relative proportion of about 90% in this case normally represent the main fraction of the resulting total population of mononuclear cells. 10% of the mononuclear cells are represented by monocytes. The mononuclear cells obtained were taken up in special cell culture media and incubated in a gas incubator at 37° C., a relative humidity of 98% and 5% relative air-CO2 content. The metabolism of the primarily resting immune cells was activated by means of mitogenic stimulation (0.5 μg/ml of phytohemagglutinin). In order to test the influence of the combinations used according to the invention on the thiol status of thiol-deficient immune cells, these were artificially thiol-depleted. This was carried out by culturing in thiol-deficient media (RPMI 1603) according to tested procedures. Comparison cultures using whole media (RPMI 1640) served for the definition of the best possible normal value under culture conditions. […] Primarily nonfluorogenic CMFDA is in this case passively taken up by the cell. Binding to cytoplasmic thiol groups takes place via the chloromethyl radical. After removal of the acetate radicals by nonspecific cellular esterases, this, now cell membrane-impermeable complex becomes fluorogenic at an excitation wavelength λex=490 nm with an emission wavelength λem=520 nm. The mean fluorescence intensity of the sample (10,000 cells) is directly proportional to the concentration of the intracellular thiol groups. In FIG. 1, the action of the combination of α-lipoic acid and ambroxole (FIG. 1a) and α-lipoic acid and enalapril (FIG. 1b) on the intracellular thiol expression of lymphocytes is shown. […] The data are shown as the ratio of the cellular fluorescence intensity for calibration particles (beads) in each case analyzed in parallel. The active compound concentration of the respective combination is identical to the concentrations of the individual components.

SMILES: O=C(O)CCCCC1CCSS1 (stereo not drawn) [α-lipoic acid]
- action relative to the action of the combinations (peritoneal macrophages [1]; after about 4 days in the dialysis model): approximately 50%
- intracellular thiol status in the dialysis model (in words) (peritoneal macrophages [1]; dialysis model over 14 days, FIG. 6): only short-lasting
- effect on the membrane-bound thiol expression of peritoneal macrophages (in words) (peritoneal macrophages [2]): very marked effect of the sole administration of α-lipoic acid is to be noted here, which, however, is cancelled out again after 4 days of treatment
- CD15/69 (peritoneal macrophages [3]; CD69 on CD15-positive cells): 1.09 ± 0.08
- CD11c/71 (peritoneal macrophages [3]; CD71 on CD11c-positive cells): 1.08 ± 0.09
- CD11c (peritoneal macrophages [3]): 1.21 ± 0.11
- CD15 (peritoneal macrophages [3]): 1.18 ± 0.16
- increase in the phagocytosis rate in relation to the untreated control, factor (peritoneal macrophages [4]): 1.85
- Phagocytosis rate (peritoneal macrophages [4]; α-lipoic acid 50 μM, ambroxole 10 μM, enalapril 5 μM, captopril 10 μM): 687 ± 59 mfi/10,000 cells
- membrane-bound thiol expression in the dialysis model (in words) (peritoneal macrophages [5]): intermediate
- intracellular thiol expression ([6]; culture period 0 d): 2.88 ± 0.20 mfiBeads/Ratio
- intracellular thiol expression ([6]; culture period 1 d): 2.81 ± 0.23 mfiBeads/Ratio
- intracellular thiol expression ([6]; culture period 2 d): 2.76 ± 0.50 mfiBeads/Ratio
- intracellular thiol expression ([6]; culture period 3 d): 2.63 ± 0.60 mfiBeads/Ratio
- intracellular thiol expression ([6]; culture period 4 d): 2.41 ± 0.40 mfiBeads/Ratio
- intracellular thiol expression ([6]; culture period 6 d): 2.23 ± 0.50 mfiBeads/Ratio
- intracellular thiol expression ([6]; culture period 8 d): 2.02 ± 0.30 mfiBeads/Ratio
- intracellular thiol expression ([6]; culture period 10 d): 1.89 ± 0.30 mfiBeads/Ratio
- intracellular thiol expression ([6]; culture period 12 d): 1.86 ± 0.68 mfiBeads/Ratio
- intracellular thiol expression ([6]; culture period 14 d): 1.83 ± 0.60 mfiBeads/Ratio
- effect on the intracellular thiol deficit (in words) ([6]; thiol-deficient conditions (1603), FIG. 1): Neither by α-lipoic acid alone nor by the individual application of the effectors was a complete equalization of the thiol deficit possible
